Test results as given in patent US20120213764A1, “NOVEL METHOD FOR THE PRODUCTION OF A ANTIMICROBIAL PEPTIDE” (B.R.A.I.N. BIOTECHNOLOGY RESEARCH AND INFORMATION NETWORK AG, priority 2009, published 2012).

Legend:
[1] = test system: Escherichia coli and Staphylococcus aureus; assay: Antimicrobial activity assay-1, colony-forming units (CFU) assay; type: cell-based; conditions: for reduction of bacteria (colony-forming units): 50-100 μg/ml peptide, 37° C. for 2-4 hours, 10 mM sodium phosphate buffer/10 mM NaCl pH 7.0
Description: Antimicrobial assays were performed using the colony-forming units (CFU) assay as previously described. The antibacterial activity of DCD-derived peptides was tested against the following bacterial strains: Escherichia coli and Staphylococcus aureus. Bacterial cultures were grown to mid-exponential growth phase and washed three times with 10 mM sodium phosphate buffer/10 mM NaCl (pH 7.0). Bacterial concentration was estimated photometrically at 600 nm. Absorbance of 1.0 corresponded to 8.56×10^8/ml for E. coli, 1.97×10^8/ml for S. aureus.
After dilution to a concentration of 10^6 CFU/ml, 10 μl of the dilutions were incubated at 37° C. for 2-4 hours with the respective peptide diluted in water in a total volume of 30 μl in 10 mM sodium phosphate buffer containing 10 mM NaCl (pH 7.0). After incubation, cells were diluted 1:100 in 10 mM sodium phosphate buffer containing 10 mM NaCl (pH 7.0) and 90 μl of the diluted bacterial suspension were plated in triplicates on blood agar. Bacterial colonies were counted after incubation for 18-24 hours at 37° C. The antimicrobial activity was calculated using [(cell survival after peptide incubation)/(cell survival in buffer without peptide)×100]. The LC90 describes the lethal concentration of the current peptide in μg/ml or M which leads to 90% reduction of colony-forming units compared to the buffer control. The assay was carried out with 50-100 μg/ml DCD1L and DCD1.

[2] = test system: Escherichia coli, Staphylococcus aureus, and Micrococcus luteus; assay: Antimicrobial activity assay-2, zone of inhibition on LB agar; type: cell-based; conditions: peptide in 40% ACN/0.06% FA spotted in 10 μl on LB agar, 37° C. over night; FIG. 4 against S. aureus
Description: DCD1 was dissolved in 0.06% FA (2-5) or 40% ACN/0.06% FA (7-10). 1. 0.06% FA; 2. 5 μg DCD1; 3. 10 μg DCD1; 4. 30 μg DCD1; 5. 60 μg DCD1; 6.40% ACN/0.06% FA; 7. 5 μg DCD1; 8. 10 μg DCD1; 9. 30 μg DCD1; 10. 60 μg DCD1.
(§1) The antimicrobial activity of DCD1 and DCD1L peptides were tested against the following bacterial strains: Escherichia coli, Staphylococcus aureus, and Micrococcus luteus, isolated from skin. Bacterial cultures were grown to mid-exponential growth phase and bacterial concentration was estimated photometrically at 578 nm. Absorbance of 1.0 corresponded to 8.56×10^8/ml for E. coli, 1.97×10^8/ml for S. aureus. After dilution to a concentration of OD578nm 0.01 (˜10^6 CFU/ml), 100 μl of the cells were plated on LB agar. Afterwards different concentrations of the peptide dissolved in 40% ACN/0.06% FA were spotted on the plates in a total volume of 10 μl. As control 10 μl of 40% ACN/0.06% FA was used. The plates were incubated at 37° C. over night. After incubation the zone of inhibition was determined and the antimicrobial activity was calculated in dependence on the peptide concentration.

S. aureus = assay: Antimicrobial activity assay-2 with in vivo produced DCD1; type: cell-based; conditions: ~28 μg spotted, in 40% ACN/0.06% FA, S. aureus OD578nm 0.01 on LB agar
Description: DCD1 was dissolved in 40% ACN/0.06% FA. 1. 24 μg recombinantly produced DCD1 2. 24 μg in vivo produced DCD1; 3. 10 μl 40% ACN/0.06% FA;
as §1
To determine the antimicrobial activity, the in vivo produced DCD1 was lyophilized and dissolved in 40% ACN/0.06% FA. For testing its activity ˜28 μg DCD1 was spotted in LB agar plates containing 100 μl S. aureus (OD578nm 0.01) (see chapter Antimicrobial activity assay—2). As control 40% ACN/0.06% FA was spotted.

[3] = test system: E. coli, methicillin-resistant Staphylococcus aureus, Staphylococcus epidermidis and Candida albicans; conditions: cited from earlier work
[4] = parameters: species or system human; conditions: in vivo
Description: Line 1-3: DCD1L dissolved in 300 mM NaCl, 10 mM NaH2PO4, pH 4.0 and incubated on skin for 0, 2 and 4 hours; Line 4-6: DCD1L dissolved in 300 mM NaCl, 10 mM NaH2PO4, pH 6.5 and incubated on skin for 0, 2 and 4 hours; […] and incubated on skin for 0, 2 and 4 hours. As controls are the recombinantly produced DCD1 and DCD1L peptides.
(A) 2 h, (B) 4 h, (C) 19 h. A total ion count chromatogram […] is shown in black and two single ion chromatograms for m/z 785 and m/z 805 corresponding to DCD1 and DCD1L respectively are shown.
For testing in vivo processing, the DCD1L peptide was dissolved in buffers (300 mM NaCl, 10 mM NaH2PO4) varying in pH (4, 6.5, and 9) and incubated on forearm. Therefore a construction composed of cardboard containing five ceramic rings was created. This construction was fixed on forearm with tape and ceramic rings were filled with 100 μl (˜140 μg) DCD1L. Finally an elastic foil was used to surround the whole construction. The incubation on skin varied from one to four hours before removing the samples from skin. Afterwards the peptide samples were analyzed by SDS PAGE (FIG. 5) and HPLC-MS (FIGS. 6 A and B) and also further incubated at room temperature in vitro (FIG. 6 C). […] This kind of processing was also analyzed by SDS PAGE and HPLC-MS.

Substance	reduction of bacteria (colony-forming units) [1]	antimicrobial activity (zone of inhibition) [2]	antimicrobial activity (inhibition zone) of DCD1 produced from DCD1L on skin (S. aureus)	antimicrobial activity against several microorganisms [3]	antimicrobial activity (inventors' finding, summary statement) ([1]; no conditions given at the place)	conversion of DCD1L into DCD1 ([4]; pH 4)	incubation time after which processing of DCD1L to DCD1 was complete ([4]; pH 9)
DCD1: 47 aa peptide, amino acids 63 to 109 of dermcidin, recombinantly produced or formed from DCD1L on skin (SSLLEKGLDGAKKAVGGLGKLGKDAVEDLESVGKGAVHDVKDVLDSV; homo sapiens)	led to a reduction of diverse bacteria	activity emanating from DCD1 was detectable	is antimicrobial active	have antimicrobial activity			
DCD1L: 48 aa peptide, amino acids 63 to 110 of dermcidin, recombinantly produced (SSLLEKGLDGAKKAVGGLGKLGKDAVEDLESVGKGAVHDVKDVLDSVL; homo sapiens)	only the addition of DCD1 led to a reduction of diverse bacteria	only activity emanating from DCD1 was detectable		have antimicrobial activity	does not have antimicrobial activity	always converted into DCD1 in a pH- and time-dependent manner	16 h
SEQ ID NO: 4: peptide of amino acids 63 to 87 of dermcidin (SSLLEKGLDGAKKAVGGLGKLGKDA; homo sapiens)				have antimicrobial activity			
SEQ ID NO: 5: peptide of amino acids 63 to 85 of dermcidin (SSLLEKGLDGAKKAVGGLGKLGK; homo sapiens)				have antimicrobial activity			
